{"source": "patent US20210206817A1", "about": "“Metabolically Stable Apelin Analogs in the Treatment of Disease Mediated by the Apelin Receptor” (priority 2014, published 2021)", "key": {"[1]": {"tested_on": "rat aortic rings precontracted by noradrenaline (NA)", "assay": "Isometric tension of aortic rings precontracted by noradrenaline", "protocol": "The experiments were performed in rat aortic rings as previously described (39). […] The aortas were cleaned of excess connective tissue and fat and cut into rings of approximately 3-4 mm in length. Special care was taken to avoid damaging the luminal surface of the endothelium. […] One end of the aortic ring was connected to a tissue holder and the other to an isometric force transducer (EMKA Technologies, Paris, France). […] During equilibration period, the rings were washed every 30 min. Then, a first relaxation to acetylcholine (Ach, 10^−4 mol/L) was implemented to check the integrity or the absence of the endothelium in rings precontracted with NA (3×10^−8 mol/L). After rinsing with PSS to baseline tension, rings were equilibrated for 90 min. […] Each concentration of the drug was added at the maximal effect of the precedent concentration. The concentration-response curves were continuously recorded on a PC by means of IOX v 2.4 (EMKA Technologies, Paris) for further analysis (Datanalyst v2.1, EMKA Technologies, Paris)."}, "rat apelin receptor-EGFP [2]": {"biological_target": "T1, rat apelin receptor-EGFP (Rattus norvegicus, UniProt Q9JHG3)", "T1 construct": "expressed in transfected cells", "T1 sequence (Q9JHG3 1-377)": "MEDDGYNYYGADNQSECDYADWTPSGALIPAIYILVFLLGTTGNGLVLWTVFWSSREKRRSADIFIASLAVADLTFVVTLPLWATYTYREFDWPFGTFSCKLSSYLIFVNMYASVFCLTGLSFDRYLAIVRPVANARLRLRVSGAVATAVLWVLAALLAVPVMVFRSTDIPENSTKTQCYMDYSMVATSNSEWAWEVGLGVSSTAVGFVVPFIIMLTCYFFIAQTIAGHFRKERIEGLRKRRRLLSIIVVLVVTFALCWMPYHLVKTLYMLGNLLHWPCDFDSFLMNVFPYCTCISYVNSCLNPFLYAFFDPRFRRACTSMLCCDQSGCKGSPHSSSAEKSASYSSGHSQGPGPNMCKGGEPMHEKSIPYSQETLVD", "assay": "Inhibition of forskolin-induced cAMP production (HTRF)", "type": "cell-based"}, "in vitro": {"assay": "in vitro", "conditions": "for half-life at 5 μM: mouse, plasma", "protocol": "For each compound, the stock solution (100 μM in water) was diluted in plasma to a final incubation concentration of 5 μM. The incubation at 37° C. was stopped respectively at to and 4 h by adding one volume of ice cold acetonitrile containing 0.1% trifluoroacetic acid. The sample was vortexed for 1 min and then centrifuged at 4° C. before LC-MS injection of the supernatant. Analyses were performed on a Kinetex RP-C18 column (2.6 μm, 100 Å, 50×4.6 mm) using a linear gradient (solvent B in solvent A, solvent A: water/0.05% TFA; solvent B: acetonitrile; flow rate of 2 mL·min^−1: detection at 358 nm). The percentage of remaining test compound relative to t0 was measured by monitoring the peak area of the chromatogram."}, "rat apelin receptor-EGFP [3]": {"biological_target": "T1, rat apelin receptor-EGFP", "assay": "ERK1/2 phosphorylation (Alphascreen)", "type": "cell-based", "excerpt": "ERK1/2 phosphorylation was then monitored by Alphascreen technology."}, "rat apelin receptor-EGFP [4]": {"biological_target": "T1, rat apelin receptor-EGFP", "assay": "[125I]pE13F radioligand binding on CHO membrane preparations", "protocol": "Crude membrane preparation from CHO stably expressing the wild-type rat apelin receptor-EGFP, were prepared as previously described (39). […] The reaction was stopped by adding ice-cold binding buffer and filtered through glass microfiber filters (Whatman GF/C filters). Radioactivity was counted in Wizard 1470 Wallac gamma counter (Perkin Elmer, Turku, Finland)."}, "rat apelin receptor-EGFP [5]": {"biological_target": "T1, rat apelin receptor-EGFP", "assay": "Apelin receptor-EGFP internalization, confocal microscopy", "type": "cell-based", "protocol": "The internalization assay was performed as described previously with CHO cells stably expressing the rat apelin receptor-EGFP (43). […] Cells were then mounted in Aquapolymount (Polysciences, Warrington, Pa., USA) for confocal microscopic analysis (Sec (42) for details)."}, "[6]": {"tested_on": "water-deprived or euhydrated mice", "assay": "Plasma AVP after i.c.v. injection (RIA)", "type": "in vivo, mouse"}, "[7]": {"tested_on": "rat glomerular arterioles precontracted by Angiotensin II (AngII)", "assay": "Diameter of glomerular arterioles precontracted by angiotensin II", "protocol": "The left kidney of male rats was prepared for microdissection of arterioles as previously described (44). Glomerular arterioles were isolated under stereomicroscopic observation. The afferent and muscular efferent arterioles were isolated with the glomerulus and identify according their morphology and localization in the inner renal cortex as previously described by Helou et al. […] For these experiments afferent and muscular efferent arterioles were microdissected attached to the gomeruli. […] Arteriolar diameters were measured with Adobe Photoshop CS. Diameters were measured on a distance equal to about 100 μm upstream of the glomerulus and triplicate were performed for each arteriole. Calibration was made using a stage micrometer. The average diameter for each experimental condition was used for statistical analysis."}, "[8]": {"tested_on": "anaesthesized normotensive Wistar rats", "assay": "Arterial blood pressure after i.v. injection", "type": "in vivo, rat", "protocol": "The resulting solution was administered to the rats via a catheter inserted into the right femoral vein, and was immediately followed by 0.2 ml Krebs buffer alone to flush the venous catheter. An additional catheter was inserted into the right femoral artery, as previously described (47), for the monitoring of mean arterial blood pressure (MBP) as previously described (48). The arterial catheter was connected to a COBE CDX III pressure transducer (Phymep, Paris, France) linked to the Maclab system (Phymep, Paris, France). HR measurement was triggered by the blood pressure signal. BP was continuously recorded throughout the experiment. […] Mean AUC for each group were then calculated. Unpaired Student's t test was used to determine whether BP observed in response to substances administered […].) has statistically significant difference."}, "[9]": {"conditions": "[125I]pE13F binding I (nM), Table 2"}, "[10]": {"conditions": "15 nmol i.v., listed as JFM V-01961"}}, "note": "Like-named read-outs stand apart in the source and are kept apart here. Where a SMILES comes first, the peptide text is derived from it.", "data": [{"compound": "CCCC[C@H](NC(=O)[C@@H]1CCCN1C(=O)[C@@H](C)NC(=O)[C@H](CCCCN)NC(=O)C(C)(C)NC(=O)[C@H](CO)NC(=O)[C@@H](CC(C)C)NC(=O)[C@H](CCCNC(=N)N)NC(=O)[C@@H]1CCCN1C(=O)[C@H](CCCNC(=N)N)NC(C)=O)C(=O)N1CCC[C@H]1C(=O)N[C@@H](Cc1ccc(Br)cc1)C(=O)O", "note": "[P26, N-Acetyl-Arg-Pro-Arg-DLeu-Ser-Aib-Lys-DAla-Pro-Nle-Pro-(4-Br)Phe-OH] (HELM PEPTIDE1{[ac].R.P.R.[dL].S.[Aib].K.[dA].P.[Nle].P.[O=C(O)[C@H](Cc1ccc(Br)cc1)N[*:1]]}$$$$V2.0)", "values": [{"measurement": "maximal relaxant effect", "setting": "[1]; precontraction 3×10^−6 M NA", "result": "93±3", "unit": "%"}, {"measurement": "potency (pD2) of relaxation", "setting": "[1]; precontraction 3×10^−6 M NA", "result": "6.27±0.42"}, {"measurement": "IC50", "setting": "rat apelin receptor-EGFP [2]; 10^−6 M forskolin, read-out: IC50 inhibition of forskolin-induced cAMP production", "result": "4.4 ± 0.9", "unit": "nM"}, {"measurement": "IC50", "setting": "rat apelin receptor-EGFP [2]; Table 2, read-out: cAMP production IC50", "result": "2.22 ± 1", "unit": "nM"}, {"measurement": "half-life at 5 μM", "setting": "in vitro", "result": 86, "unit": "min"}, {"measurement": "ERK1/2 EC50 times higher than K17F", "setting": "rat apelin receptor-EGFP [3]", "result": 18, "unit": "times"}, {"measurement": "EC50", "setting": "rat apelin receptor-EGFP [3]; 10 min, read-out: EC50 ERK1/2 phosphorylation", "result": "71.3 ± 19.1", "unit": "nM"}, {"measurement": "EC50", "setting": "rat apelin receptor-EGFP [3]; Table 7, read-out: ERK1/2 phosphorylation EC50", "result": "72.1 ± 19.6", "unit": "nM"}, {"measurement": "Ki", "setting": "rat apelin receptor-EGFP [4]; [9]", "result": "2.11 ± 0.4", "unit": "nM"}, {"measurement": "EC50", "setting": "rat apelin receptor-EGFP [5]; 20 min, read-out: EC50 apelin receptor internalization", "result": "2.11 ± 1.14", "unit": "nM"}]}, {"compound": "CSCC[C@H](NC(=O)[C@@H]1CCCN1C(=O)CNC(=O)[C@H](CCCCN)NC(=O)[C@H](Cc1c[nH]cn1)NC(=O)[C@H](CO)NC(=O)[C@H](CC(C)C)NC(=O)[C@H](CCCNC(=N)N)NC(=O)[C@@H]1CCCN1C(=O)[C@H](CCCNC(=N)N)NC(=O)[C@H](CCC(N)=O)NC(=O)[C@H](CCCNC(=N)N)NC(=O)[C@H](CCCNC(=N)N)NC(=O)[C@H](Cc1ccccc1)NC(=O)[C@H](CCCCN)NC(=O)CCC(F)(F)C(F)(F)C(F)(F)C(F)(F)C(F)(F)C(F)(F)C(F)(F)C(F)(F)F)C(=O)N1CCC[C@H]1C(=O)N[C@@H](Cc1ccccc1)C(=O)O", "note": "[JFM V-0196B]", "values": [{"measurement": "vasorelaxing effect at maximal concentration", "setting": "[1]; 100 μM", "result": "60±3", "unit": "%"}, {"measurement": "effect on plasma AVP levels in euhydrated mice", "setting": "[6]; euhydrated mice, supramaximal dose 1 μg i.c.v.", "result": "no effect on plasma AVP levels"}, {"measurement": "maximal decrease in AVP release", "setting": "[6]; water-deprived mice, 0.01 μg i.c.v.", "result": "−75", "unit": "%"}, {"measurement": "IC50", "setting": "rat apelin receptor-EGFP [2]", "result": "3.13 ± 1.43", "unit": "nM"}, {"measurement": "starting peptide remaining after 4 h", "setting": "in vitro; Table 4, mouse plasma, 37° C., 4 h", "result": "100% of starting peptide after 4 h"}, {"measurement": "half-life at 5 μM", "setting": "in vitro", "result": "> 240", "unit": "min"}, {"measurement": "EC50", "setting": "rat apelin receptor-EGFP [3]", "result": "0.89 ± 0.61", "unit": "nM"}, {"measurement": "Ki", "setting": "rat apelin receptor-EGFP [4]; Binding affinity Ki (nM), Table 7, additional experiments vs Table 2", "result": "0.08 ± 0.01", "unit": "nM"}, {"measurement": "Ki", "setting": "rat apelin receptor-EGFP [4]; Ki for the apelin receptor (affinity), competition with [125I]pE13F, CHO membranes", "result": 0.2, "unit": "nM"}, {"measurement": "Ki", "setting": "rat apelin receptor-EGFP [4]; [9]", "result": "0.21 ± 0.27", "unit": "nM"}, {"measurement": "arteriolar diameter after application to Ang II-precontracted arterioles", "setting": "[7]; 500 nM, 1 nM Ang II, from 12.97±0.50 μm", "result": "13.88±0.45", "unit": "μm"}, {"measurement": "vasorelaxant effect in the presence of L-NAME", "setting": "[7]; L-NAME, NO synthase inhibitor", "result": "not significantly changed"}, {"measurement": "duration of the hypotensive effect, fold higher than K17F", "setting": "[8]; 15 nmol i.v.", "result": 27, "unit": "fold"}, {"measurement": "maximal hypotensive response, fold higher than K17F", "setting": "[8]; 15 nmol i.v.", "result": 9, "unit": "fold"}, {"measurement": "BP decrease at the plateau value after 30 min", "setting": "[8]; 15 nmol i.v., after 30 min", "result": 21, "unit": "mmHg"}, {"measurement": "duration of the hypotensive effect, fold higher than K17F", "setting": "[8]; [10]", "result": 8, "unit": "fold"}, {"measurement": "maximal hypotensive response, fold higher than K17F", "setting": "[8]; [10]", "result": 6.7, "unit": "fold"}, {"measurement": "time of maximal hypotensive response after injection", "setting": "[8]; 15 nmol/rat i.v.", "result": 10, "unit": "min"}, {"measurement": "Maximal decrease in BP (mmHg)", "setting": "[8]; Table 5, 15 nmol i.v.", "result": "−52", "unit": "mmHg"}, {"measurement": "Time For maximal BP decrease", "setting": "[8]; Table 5, 15 nmol i.v.", "result": 10, "unit": "min"}, {"measurement": "Time to return to a plateau value", "setting": "[8]; Table 5, 15 nmol i.v.", "result": 33, "unit": "min"}, {"measurement": "plateau value reached (in brackets)", "setting": "[8]; Table 5, 15 nmol i.v.", "result": "−21", "unit": "mmHg"}, {"measurement": "EC50", "setting": "rat apelin receptor-EGFP [5]", "result": "0.41 ± 0.16", "unit": "nM"}]}]}
